Experimental data reported in patent US6737383B1, “Herbicidal oxadiazolidines” (priority 1999, dated 2004).

How the values were obtained:
sugar beet = test: Test B pre/postemergence sugar beet; type: in vivo, Beta vulgaris; settings: for Sugarbeets plant response rating (0 to 10 scale): 0 is no effect
Summary of the method: (§1)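 Test chemicals in a non-phytotoxic solvent mixture with surfactant were sprayed preemergence onto planted seeds and postemergence onto plants 2 to 18 cm tall (1- to 4-leaf stage). After twelve to sixteen days in a greenhouse, injury was visually rated against untreated controls from 0 (no effect) to 10 (complete control).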

surinam grass = test: Test B pre/postemergence surinam grass; type: in vivo, Brachiaria decumbens; settings: for B. signalgrass plant response rating (0 to 10 scale): 0 is no effect
Summary of the method: as §1

wheat = test: Test B pre/postemergence wheat; type: in vivo, Triticum aestivum; settings: for Wheat plant response rating (0 to 10 scale): Rate 125 g/ha, 0 is no effect
Summary of the method: as §1

corn = test: Test B pre/postemergence corn; type: in vivo, Zea mays; settings: for Corn plant response rating (0 to 10 scale): 0 is no effect
Summary of the method: as §1

pigweed = test: Test B pre/postemergence pigweed; type: in vivo, Amaranthus retroflexus
Summary of the method: as §1

soybean = test: Test B pre/postemergence soybean; type: in vivo, Glycine max; settings: for Soybean plant response rating (0 to 10 scale): 0 is no effect
Summary of the method: as §1

rape = test: Test B pre/postemergence rape; type: in vivo, Brassica napus; settings: for Rape plant response rating (0 to 10 scale): 0 is no effect
Summary of the method: as §1

crabgrass = test: Test B pre/postemergence crabgrass; type: in vivo, Digitaria sanguinalis
Summary of the method: as §1

blackgrass = test: Test B pre/postemergence blackgrass; type: in vivo, Alopecurus myosuroides; settings: for Blackgrass plant response rating (0 to 10 scale): 0 is no effect
Summary of the method: as §1

cocklebur = test: Test B pre/postemergence cocklebur; type: in vivo, Xanthium strumarium; settings: for Cocklebur plant response rating (0 to 10 scale): 0 is no effect
Summary of the method: as §1

bedstraw = test: Test B pre/postemergence bedstraw; type: in vivo, Galium aparine; settings: for Bedstraw plant response rating (0 to 10 scale): 0 is no effect
Summary of the method: as §1

velvetleaf = test: Test B pre/postemergence velvetleaf; type: in vivo, Abutilon theophrasti; settings: for Velvetleaf plant response rating (0 to 10 scale): Rate 125 g/ha, 0 is no effect
Summary of the method: as §1

wild oat = test: Test B pre/postemergence wild oat; type: in vivo, Avena fatua; settings: for Wild oats plant response rating (0 to 10 scale): Rate 125 g/ha, 0 is no effect
Summary of the method: as §1

purple nutsedge = test: Test B pre/postemergence purple nutsedge; type: in vivo, Cyperus rotundus; settings: for Nutsedge plant response rating (0 to 10 scale): 0 is no effect
Summary of the method: as §1

[1] = Postemergence, Rate 125 g/ha, scale of 0 to 10 where 0 is no effect and 10 is complete control
[2] = Preemergence, Rate 62 g/ha, scale of 0 to 10 where 0 is no effect and 10 is complete control
[3] = Preemergence, Rate 125 g/ha, 10 is complete control
[4] = Preemergence, Rate 250 g/ha, scale 0 to 10, 0 is no effect, 10 is complete control
[5] = Preemergence, Rate 500 g/ha, scale 0 to 10 (0 no effect, 10 complete control)
[6] = Rate 62 g/ha, Postemergence, scale of 0 to 10 where 0 is no effect and 10 is complete control
[7] = Rate 250 g/ha, Postemergence, scale 0 to 10, 0 is no effect, 10 is complete control
[8] = Rate 500 g/ha, Postemergence, scale 0 to 10
[9] = Rate 500 g/ha, Postemergence, scale 0 to 10, 0 no effect, 10 complete control
[10] = Preemergence, 10 is complete control
[11] = Preemergence, Rate 125 g/ha, 0 is no effect, 10 is complete control

CC1CCCCC1n1c(=O)on(C(=O)N(c2ccc(F)cc2F)C(C)C)c1=O (stereo not drawn) [Compound 172]
Sugarbeets plant response rating (sugar beet; [1]): 0
Sugarbeets plant response rating (sugar beet; [2]): 0
Sugarbeets plant response rating (0 to 10 scale) (sugar beet; [3]): 2
Sugarbeets plant response rating (sugar beet; [4]): 5
Sugarbeets plant response rating (sugar beet; [5]): 5
Sugarbeets plant response rating (sugar beet; [6]): 0
Plant response rating, Sugarbeets (sugar beet; [7]): 0
Sugarbeets plant response rating (sugar beet; [8]): 0
B. signalgrass plant response rating (surinam grass; [1]): 0
B. signalgrass plant response rating (surinam grass; [2]): 2
B. signalgrass plant response rating (0 to 10 scale) (surinam grass; [3]): 5
B. signalgrass plant response rating (surinam grass; [4]): 5
B. signalgrass plant response rating (surinam grass; [5]): 8
B. signalgrass plant response rating (surinam grass; [6]): 0
Plant response rating, B. signalgrass (surinam grass; [7]): 0
B. signalgrass plant response rating (surinam grass; [9]): 0
Wheat plant response rating (wheat; [2]): 0
Wheat plant response rating (0 to 10 scale) (wheat; [10]): 0
Wheat plant response rating (wheat; [4]): 0
Wheat plant response rating (wheat; [5]): 0
Plant response rating, Wheat (wheat; [7]): 0
Wheat plant response rating (wheat; [8]): 0
Corn plant response rating (corn; [1]): 0
Corn plant response rating (corn; [2]): 0
Corn plant response rating (0 to 10 scale) (corn; [3]): 0
Corn plant response rating (corn; [4]): 0
Corn plant response rating (corn; [5]): 0
Corn plant response rating (corn; [6]): 0
Plant response rating, Corn (corn; [7]): 0
Corn plant response rating (corn; [8]): 0
Redroot pigweed plant response rating (pigweed; [1]): 0
Redroot pigweed plant response rating (pigweed; [2]): 0
Redroot pigweed plant response rating (0 to 10 scale) (pigweed; [11]): 6
Redroot pigweed plant response rating (pigweed; [4]): 8
Redroot pigweed plant response rating (pigweed; [5]): 8
Redroot pigweed plant response rating (pigweed; [6]): 0
Plant response rating, Redroot pigweed (pigweed; [7]): 3
Redroot pigweed plant response rating (pigweed; [8]): 7
Soybean plant response rating (soybean; [1]): 3
Soybean plant response rating (soybean; [2]): 0
Soybean plant response rating (0 to 10 scale) (soybean; [3]): 0
Soybean plant response rating (soybean; [4]): 0
Soybean plant response rating (soybean; [5]): 0
Soybean plant response rating (soybean; [6]): 2
Plant response rating, Soybean (soybean; [7]): 3
Soybean plant response rating (soybean; [8]): 5
Rape plant response rating (rape; [1]): 0
Rape plant response rating (rape; [2]): 0
Rape plant response rating (0 to 10 scale) (rape; [3]): 0
Rape plant response rating (rape; [4]): 0
Rape plant response rating (rape; [5]): 5
Rape plant response rating (rape; [6]): 0
Plant response rating, Rape (rape; [7]): 0
Rape plant response rating (rape; [8]): 0
Crabgrass plant response rating (crabgrass; [1]): 3
Crabgrass plant response rating (crabgrass; [2]): 7
Crabgrass plant response rating (0 to 10 scale) (crabgrass; [11]): 8
Crabgrass plant response rating (crabgrass; [4]): 10
Crabgrass plant response rating (crabgrass; [5]): 10
Crabgrass plant response rating (crabgrass; [6]): 0
Plant response rating, Crabgrass (crabgrass; [7]): 9
Crabgrass plant response rating (crabgrass; [8]): 9
Blackgrass plant response rating (blackgrass; [1]): 0
Blackgrass plant response rating (blackgrass; [2]): 0
Blackgrass plant response rating (0 to 10 scale) (blackgrass; [3]): 0
Blackgrass plant response rating (blackgrass; [4]): 3
Blackgrass plant response rating (blackgrass; [5]): 3
Blackgrass plant response rating (blackgrass; [6]): 0
Plant response rating, Blackgrass (blackgrass; [7]): 5
Blackgrass plant response rating (blackgrass; [8]): 5
Cocklebur plant response rating (cocklebur; [1]): 0
Cocklebur plant response rating (cocklebur; [2]): 0
Cocklebur plant response rating (0 to 10 scale) (cocklebur; [3]): 0
Cocklebur plant response rating (cocklebur; [4]): 0
Cocklebur plant response rating (cocklebur; [5]): 0
Cocklebur plant response rating (cocklebur; [6]): 0
Plant response rating, Cocklebur (cocklebur; [7]): 0
Cocklebur plant response rating (cocklebur; [8]): 2
Bedstraw plant response rating (bedstraw; [1]): 0
Bedstraw plant response rating (bedstraw; [2]): 0
Bedstraw plant response rating (0 to 10 scale) (bedstraw; [3]): 0
Bedstraw plant response rating (bedstraw; [4]): 3
Bedstraw plant response rating (bedstraw; [5]): 5
Bedstraw plant response rating (bedstraw; [6]): 0
Plant response rating, Bedstraw (bedstraw; [7]): 8
Velvetleaf plant response rating (velvetleaf; [2]): 0
Velvetleaf plant response rating (0 to 10 scale) (velvetleaf; [10]): 0
Velvetleaf plant response rating (velvetleaf; [4]): 0
Velvetleaf plant response rating (velvetleaf; [5]): 3
Plant response rating, Velvetleaf (velvetleaf; [7]): 0
Velvetleaf plant response rating (velvetleaf; [8]): 2
Wild oats plant response rating (wild oat; [2]): 0
Wild oats plant response rating (0 to 10 scale) (wild oat; [10]): 0
Wild oats plant response rating (wild oat; [4]): 3
Wild oats plant response rating (wild oat; [5]): 6
Plant response rating, Wild oats (wild oat; [7]): 0
Wild oats plant response rating (wild oat; [8]): 0
Nutsedge plant response rating (purple nutsedge; [1]): 0
Nutsedge plant response rating (purple nutsedge; [2]): 0
Nutsedge plant response rating (0 to 10 scale) (purple nutsedge; [3]): 0
Nutsedge plant response rating (purple nutsedge; [4]): 0
Nutsedge plant response rating (purple nutsedge; [5]): 0
Nutsedge plant response rating (purple nutsedge; [6]): 0
Plant response rating, Nutsedge (purple nutsedge; [7]): 0
Nutsedge plant response rating (purple nutsedge; [8]): 0

CC(C)N(C(=O)n1oc(=O)n(CC(F)(F)F)c1=O)c1ccc(F)cc1 [Compound 163]
Sugarbeets plant response rating (sugar beet; [1]): 0
Sugarbeets plant response rating (sugar beet; [2]): 0
Sugarbeets plant response rating (0 to 10 scale) (sugar beet; [3]): 3
Sugarbeets plant response rating (sugar beet; [4]): 4
Sugarbeets plant response rating (sugar beet; [5]): 6
Sugarbeets plant response rating (sugar beet; [6]): 0
Plant response rating, Sugarbeets (sugar beet; [7]): 4
Sugarbeets plant response rating (sugar beet; [8]): 5
B. signalgrass plant response rating (surinam grass; [1]): 2
B. signalgrass plant response rating (surinam grass; [2]): 0
B. signalgrass plant response rating (0 to 10 scale) (surinam grass; [3]): 2
B. signalgrass plant response rating (surinam grass; [4]): 2
B. signalgrass plant response rating (surinam grass; [5]): 2
B. signalgrass plant response rating (surinam grass; [6]): 0
Plant response rating, B. signalgrass (surinam grass; [7]): 5
B. signalgrass plant response rating (surinam grass; [9]): 6
Wheat plant response rating (wheat; [2]): 0
Wheat plant response rating (0 to 10 scale) (wheat; [10]): 2
Wheat plant response rating (wheat; [4]): 2
Wheat plant response rating (wheat; [5]): 4
Plant response rating, Wheat (wheat; [7]): 2
Wheat plant response rating (wheat; [8]): 5
Corn plant response rating (corn; [1]): 0
Corn plant response rating (corn; [2]): 0
Corn plant response rating (0 to 10 scale) (corn; [3]): 0
Corn plant response rating (corn; [4]): 0
Corn plant response rating (corn; [5]): 2
Corn plant response rating (corn; [6]): 0
Plant response rating, Corn (corn; [7]): 0
Corn plant response rating (corn; [8]): 0
Redroot pigweed plant response rating (pigweed; [1]): 2
Redroot pigweed plant response rating (pigweed; [4]): 6
Redroot pigweed plant response rating (pigweed; [5]): 9
Redroot pigweed plant response rating (pigweed; [6]): 0
Plant response rating, Redroot pigweed (pigweed; [7]): 3
Redroot pigweed plant response rating (pigweed; [8]): 3
Soybean plant response rating (soybean; [1]): 2
Soybean plant response rating (soybean; [2]): 0
Soybean plant response rating (0 to 10 scale) (soybean; [3]): 0
Soybean plant response rating (soybean; [4]): 0
Soybean plant response rating (soybean; [5]): 0
Soybean plant response rating (soybean; [6]): 2
Plant response rating, Soybean (soybean; [7]): 3
Soybean plant response rating (soybean; [8]): 3
Rape plant response rating (rape; [1]): 0
Rape plant response rating (rape; [2]): 0
Rape plant response rating (0 to 10 scale) (rape; [3]): 0
Rape plant response rating (rape; [4]): 7
Rape plant response rating (rape; [5]): 8
Rape plant response rating (rape; [6]): 0
Plant response rating, Rape (rape; [7]): 2
Rape plant response rating (rape; [8]): 4
Crabgrass plant response rating (crabgrass; [1]): 7
Crabgrass plant response rating (crabgrass; [2]): 8
Crabgrass plant response rating (crabgrass; [4]): 8
Crabgrass plant response rating (crabgrass; [5]): 9
Crabgrass plant response rating (crabgrass; [6]): 6
Plant response rating, Crabgrass (crabgrass; [7]): 8
Crabgrass plant response rating (crabgrass; [8]): 9
Blackgrass plant response rating (blackgrass; [1]): 4
Blackgrass plant response rating (blackgrass; [2]): 7
Blackgrass plant response rating (0 to 10 scale) (blackgrass; [3]): 7
Blackgrass plant response rating (blackgrass; [4]): 10
Blackgrass plant response rating (blackgrass; [5]): 10
Blackgrass plant response rating (blackgrass; [6]): 2
Plant response rating, Blackgrass (blackgrass; [7]): 6
Blackgrass plant response rating (blackgrass; [8]): 8
Cocklebur plant response rating (cocklebur; [1]): 0
Cocklebur plant response rating (cocklebur; [2]): 0
Cocklebur plant response rating (0 to 10 scale) (cocklebur; [3]): 0
Cocklebur plant response rating (cocklebur; [5]): 0
Cocklebur plant response rating (cocklebur; [6]): 0
Plant response rating, Cocklebur (cocklebur; [7]): 3
Cocklebur plant response rating (cocklebur; [8]): 3
Bedstraw plant response rating (bedstraw; [1]): 4
Bedstraw plant response rating (bedstraw; [2]): 0
Bedstraw plant response rating (0 to 10 scale) (bedstraw; [3]): 0
Bedstraw plant response rating (bedstraw; [4]): 4
Bedstraw plant response rating (bedstraw; [5]): 4
Bedstraw plant response rating (bedstraw; [6]): 0
Plant response rating, Bedstraw (bedstraw; [7]): 7
Bedstraw plant response rating (bedstraw; [8]): 9
Velvetleaf plant response rating (velvetleaf; [2]): 0
Velvetleaf plant response rating (0 to 10 scale) (velvetleaf; [10]): 2
Velvetleaf plant response rating (velvetleaf; [4]): 5
Velvetleaf plant response rating (velvetleaf; [5]): 5
Plant response rating, Velvetleaf (velvetleaf; [7]): 6
Velvetleaf plant response rating (velvetleaf; [8]): 6
Wild oats plant response rating (wild oat; [2]): 3
Wild oats plant response rating (0 to 10 scale) (wild oat; [10]): 3
Wild oats plant response rating (wild oat; [4]): 7
Wild oats plant response rating (wild oat; [5]): 10
Plant response rating, Wild oats (wild oat; [7]): 3
Wild oats plant response rating (wild oat; [8]): 3
Nutsedge plant response rating (purple nutsedge; [1]): 0
Nutsedge plant response rating (purple nutsedge; [2]): 0
Nutsedge plant response rating (0 to 10 scale) (purple nutsedge; [3]): 0
Nutsedge plant response rating (purple nutsedge; [4]): 0
Nutsedge plant response rating (purple nutsedge; [5]): 0
Nutsedge plant response rating (purple nutsedge; [6]): 0
Plant response rating, Nutsedge (purple nutsedge; [7]): 0
Nutsedge plant response rating (purple nutsedge; [8]): 3
